Experimental data from ChEMBL document CHEMBL1240315, “Allosteric inhibition of kinesin-5 modulates its processive directional motility” (Nat Chem Biol, 2006).
Activity calls are given as the source filed them. The calls are words filed in the database; no cut-off is given here.

What was measured:
[1] = target: T1, Kinesin-like protein KIF11 (Homo sapiens) (UniProt P52732); settings: 25 uM
T1 sequence (whole entry): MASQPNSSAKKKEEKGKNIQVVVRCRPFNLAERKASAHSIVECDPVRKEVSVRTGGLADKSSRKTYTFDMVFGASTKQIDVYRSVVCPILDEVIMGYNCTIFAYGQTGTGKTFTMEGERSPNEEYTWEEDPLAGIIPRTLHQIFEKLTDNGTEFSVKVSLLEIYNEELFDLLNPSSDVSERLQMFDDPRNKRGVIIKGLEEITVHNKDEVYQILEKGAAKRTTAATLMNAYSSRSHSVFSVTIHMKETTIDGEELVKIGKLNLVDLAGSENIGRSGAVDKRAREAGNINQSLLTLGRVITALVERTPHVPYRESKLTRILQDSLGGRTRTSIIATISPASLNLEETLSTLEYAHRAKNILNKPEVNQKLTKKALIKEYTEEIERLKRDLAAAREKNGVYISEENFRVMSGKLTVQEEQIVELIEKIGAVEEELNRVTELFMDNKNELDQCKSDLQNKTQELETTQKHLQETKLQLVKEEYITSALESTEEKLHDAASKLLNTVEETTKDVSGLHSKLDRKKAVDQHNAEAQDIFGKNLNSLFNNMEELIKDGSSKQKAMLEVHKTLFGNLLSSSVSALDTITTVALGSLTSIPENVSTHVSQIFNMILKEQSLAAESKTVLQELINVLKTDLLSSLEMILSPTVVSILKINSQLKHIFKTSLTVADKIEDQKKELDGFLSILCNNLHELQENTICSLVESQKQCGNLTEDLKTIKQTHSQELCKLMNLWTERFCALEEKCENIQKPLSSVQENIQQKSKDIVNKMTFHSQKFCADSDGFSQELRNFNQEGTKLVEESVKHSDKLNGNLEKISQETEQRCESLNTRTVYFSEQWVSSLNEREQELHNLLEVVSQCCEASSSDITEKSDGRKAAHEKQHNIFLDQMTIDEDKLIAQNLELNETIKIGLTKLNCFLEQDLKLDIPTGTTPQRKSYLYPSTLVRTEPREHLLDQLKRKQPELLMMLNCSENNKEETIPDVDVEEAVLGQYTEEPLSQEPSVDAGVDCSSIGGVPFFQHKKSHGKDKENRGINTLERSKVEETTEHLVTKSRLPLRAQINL
Description: Inhibition of recombinant Eg5-GFP in cell-free system assessed as Eg5 motility speed on microtubule at 25 uM by mean square displacement analysis in presence of 2 mM ATP

[2] = target: T1, Kinesin-like protein KIF11 (Homo sapiens); settings: 100 uM
Description: Inhibition of recombinant Eg5-GFP in cell-free system assessed as Eg5 motility speed on microtubule at 100 uM by mean square displacement analysis in presence of 2 mM ATP

[3] = target: T1, Kinesin-like protein KIF11 (Homo sapiens); settings: 100 uM; remark: listed apart in the source
Description: Inhibition of recombinant Eg5-GFP in cell-free system assessed as reduction of Eg5 motility speed on microtubule at 100 uM by kymograph analysis

[4] = target: T1, Kinesin-like protein KIF11 (Homo sapiens); settings: 100 uM; remark: listed apart in the source
Description: Inhibition of recombinant Eg5-GFP in cell-free system assessed as reduction in mean duration of Eg5-GFP-microtubule interaction at 100 uM by kymograph analysis

[5] = target: T1, Kinesin-like protein KIF11 (Homo sapiens); settings: 100 uM; remark: listed apart in the source
Description: Inhibition of recombinant Eg5-GFP in cell-free system assessed as Eg5-GFP movement along microtubules without directionality at 100 uM by mean square displacement analysis in presence of 2 mM ADP

[6] = target: T1, Kinesin-like protein KIF11 (Homo sapiens); assay: Binding affinity to recombinant Eg5-GFP in cell-free system assessed as Eg5-GFP movement along microtubules without directionality at 2 mM by kymograph analysis
[7] = target: T1, Kinesin-like protein KIF11 (Homo sapiens); assay: Binding affinity to recombinant Eg5-GFP in cell-free system assessed as Eg5-GFP movement along microtubules without directionality at 2 mM by mean square displacement analysis

`CCOC(=O)C1=C(C)NC(=S)NC1c1cccc(O)c1` (configuration not stated) was tested. Which Activity (nanometer2/sec) [1] did it give?
Its Activity (nanometer2/sec) is 1460.

And the Activity (nanometer2/sec) [2]?
Its Activity (nanometer2/sec) is 2140.

And the inhibition [3]?
Its inhibition is “inactive”.

What about the inhibition [4] of the same molecule?
Its inhibition is “inactive”.

And the Activity (nanometer2/sec) [5]?
Its Activity (nanometer2/sec) is 3820.

For `Nc1ncnc2c1ncn2[C@@H]1O[C@H](COP(=O)(O)OP(=O)(O)O)[C@@H](O)[C@H]1O`, which Activity (nanometer2/sec) [6] is on record?
The Activity (nanometer2/sec) was 4.

And the Activity (nanometer2/sec) [7]?
Its Activity (nanometer2/sec) is 771.
